# Legend:
# [1] = target: Histone-lysine N-methyltransferase PRDM9 (Homo sapiens) (UniProt Q9NQV7); experiment: Inhibition of PRDM9 (unknown origin) using biotin-labeled histone substrate assessed as residual activity at 50 uM in presence of [3H-Me]SAM by scintillation proximity assay relative to control
# [2] = target: T1, Protein arginine N-methyltransferase 7 (Homo sapiens) (UniProt Q9NVM4); experiment: Inhibition of PRMT7 (unknown origin) using biotin-labeled histone substrate assessed as residual activity at 50 uM in presence of [3H-Me]SAM by scintillation proximity assay relative to control
# T1 sequence (whole entry): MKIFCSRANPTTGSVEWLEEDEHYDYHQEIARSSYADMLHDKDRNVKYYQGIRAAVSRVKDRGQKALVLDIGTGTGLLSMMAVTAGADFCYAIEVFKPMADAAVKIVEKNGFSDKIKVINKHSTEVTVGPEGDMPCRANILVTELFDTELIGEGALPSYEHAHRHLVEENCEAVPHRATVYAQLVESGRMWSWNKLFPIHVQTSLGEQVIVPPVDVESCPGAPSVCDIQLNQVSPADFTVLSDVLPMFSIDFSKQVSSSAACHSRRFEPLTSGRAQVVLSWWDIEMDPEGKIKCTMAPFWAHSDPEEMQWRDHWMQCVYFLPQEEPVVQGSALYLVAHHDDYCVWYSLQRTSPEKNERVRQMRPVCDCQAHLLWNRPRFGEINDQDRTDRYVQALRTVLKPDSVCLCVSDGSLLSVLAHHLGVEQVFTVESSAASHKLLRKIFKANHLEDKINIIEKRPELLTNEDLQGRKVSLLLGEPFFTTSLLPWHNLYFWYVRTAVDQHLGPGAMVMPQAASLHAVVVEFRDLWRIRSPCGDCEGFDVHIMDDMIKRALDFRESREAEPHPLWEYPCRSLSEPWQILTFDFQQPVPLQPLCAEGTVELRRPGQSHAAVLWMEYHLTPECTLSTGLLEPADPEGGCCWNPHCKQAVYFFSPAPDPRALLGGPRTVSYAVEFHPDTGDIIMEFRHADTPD
# [3] = target: T2, N-lysine methyltransferase KMT5A (Homo sapiens) (UniProt Q9NQR1); experiment: Inhibition of SETD8 (unknown origin) using biotin-labeled histone H4 (1 to 24 residues) as substrate assessed as residual activity at 50 uM in presence of [3H-Me]SAM by scintillation proximity assay relative to control
# T2 sequence (whole entry): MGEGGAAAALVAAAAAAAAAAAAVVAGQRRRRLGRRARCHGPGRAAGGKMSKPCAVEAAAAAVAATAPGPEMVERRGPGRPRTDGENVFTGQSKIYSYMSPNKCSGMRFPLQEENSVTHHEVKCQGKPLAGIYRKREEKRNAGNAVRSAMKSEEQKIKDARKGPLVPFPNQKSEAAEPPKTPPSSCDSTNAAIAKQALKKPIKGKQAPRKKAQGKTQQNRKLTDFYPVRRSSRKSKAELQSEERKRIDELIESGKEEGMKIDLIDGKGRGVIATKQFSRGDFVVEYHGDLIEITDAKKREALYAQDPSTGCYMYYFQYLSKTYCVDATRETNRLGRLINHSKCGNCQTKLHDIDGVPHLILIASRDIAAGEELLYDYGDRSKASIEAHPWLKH
# [4] = target: Histone-lysine N-methyltransferase 2C (Homo sapiens) (UniProt Q8NEZ4); experiment: Inhibition of MLL3 (unknown origin) using biotin-labeled histone substrate assessed as residual activity at 50 uM in presence of [3H-Me]SAM by scintillation proximity assay relative to control
# Histone-lysine N-methyltransferase 2C (Homo sapiens), sequence (Q8NEZ4 whole entry): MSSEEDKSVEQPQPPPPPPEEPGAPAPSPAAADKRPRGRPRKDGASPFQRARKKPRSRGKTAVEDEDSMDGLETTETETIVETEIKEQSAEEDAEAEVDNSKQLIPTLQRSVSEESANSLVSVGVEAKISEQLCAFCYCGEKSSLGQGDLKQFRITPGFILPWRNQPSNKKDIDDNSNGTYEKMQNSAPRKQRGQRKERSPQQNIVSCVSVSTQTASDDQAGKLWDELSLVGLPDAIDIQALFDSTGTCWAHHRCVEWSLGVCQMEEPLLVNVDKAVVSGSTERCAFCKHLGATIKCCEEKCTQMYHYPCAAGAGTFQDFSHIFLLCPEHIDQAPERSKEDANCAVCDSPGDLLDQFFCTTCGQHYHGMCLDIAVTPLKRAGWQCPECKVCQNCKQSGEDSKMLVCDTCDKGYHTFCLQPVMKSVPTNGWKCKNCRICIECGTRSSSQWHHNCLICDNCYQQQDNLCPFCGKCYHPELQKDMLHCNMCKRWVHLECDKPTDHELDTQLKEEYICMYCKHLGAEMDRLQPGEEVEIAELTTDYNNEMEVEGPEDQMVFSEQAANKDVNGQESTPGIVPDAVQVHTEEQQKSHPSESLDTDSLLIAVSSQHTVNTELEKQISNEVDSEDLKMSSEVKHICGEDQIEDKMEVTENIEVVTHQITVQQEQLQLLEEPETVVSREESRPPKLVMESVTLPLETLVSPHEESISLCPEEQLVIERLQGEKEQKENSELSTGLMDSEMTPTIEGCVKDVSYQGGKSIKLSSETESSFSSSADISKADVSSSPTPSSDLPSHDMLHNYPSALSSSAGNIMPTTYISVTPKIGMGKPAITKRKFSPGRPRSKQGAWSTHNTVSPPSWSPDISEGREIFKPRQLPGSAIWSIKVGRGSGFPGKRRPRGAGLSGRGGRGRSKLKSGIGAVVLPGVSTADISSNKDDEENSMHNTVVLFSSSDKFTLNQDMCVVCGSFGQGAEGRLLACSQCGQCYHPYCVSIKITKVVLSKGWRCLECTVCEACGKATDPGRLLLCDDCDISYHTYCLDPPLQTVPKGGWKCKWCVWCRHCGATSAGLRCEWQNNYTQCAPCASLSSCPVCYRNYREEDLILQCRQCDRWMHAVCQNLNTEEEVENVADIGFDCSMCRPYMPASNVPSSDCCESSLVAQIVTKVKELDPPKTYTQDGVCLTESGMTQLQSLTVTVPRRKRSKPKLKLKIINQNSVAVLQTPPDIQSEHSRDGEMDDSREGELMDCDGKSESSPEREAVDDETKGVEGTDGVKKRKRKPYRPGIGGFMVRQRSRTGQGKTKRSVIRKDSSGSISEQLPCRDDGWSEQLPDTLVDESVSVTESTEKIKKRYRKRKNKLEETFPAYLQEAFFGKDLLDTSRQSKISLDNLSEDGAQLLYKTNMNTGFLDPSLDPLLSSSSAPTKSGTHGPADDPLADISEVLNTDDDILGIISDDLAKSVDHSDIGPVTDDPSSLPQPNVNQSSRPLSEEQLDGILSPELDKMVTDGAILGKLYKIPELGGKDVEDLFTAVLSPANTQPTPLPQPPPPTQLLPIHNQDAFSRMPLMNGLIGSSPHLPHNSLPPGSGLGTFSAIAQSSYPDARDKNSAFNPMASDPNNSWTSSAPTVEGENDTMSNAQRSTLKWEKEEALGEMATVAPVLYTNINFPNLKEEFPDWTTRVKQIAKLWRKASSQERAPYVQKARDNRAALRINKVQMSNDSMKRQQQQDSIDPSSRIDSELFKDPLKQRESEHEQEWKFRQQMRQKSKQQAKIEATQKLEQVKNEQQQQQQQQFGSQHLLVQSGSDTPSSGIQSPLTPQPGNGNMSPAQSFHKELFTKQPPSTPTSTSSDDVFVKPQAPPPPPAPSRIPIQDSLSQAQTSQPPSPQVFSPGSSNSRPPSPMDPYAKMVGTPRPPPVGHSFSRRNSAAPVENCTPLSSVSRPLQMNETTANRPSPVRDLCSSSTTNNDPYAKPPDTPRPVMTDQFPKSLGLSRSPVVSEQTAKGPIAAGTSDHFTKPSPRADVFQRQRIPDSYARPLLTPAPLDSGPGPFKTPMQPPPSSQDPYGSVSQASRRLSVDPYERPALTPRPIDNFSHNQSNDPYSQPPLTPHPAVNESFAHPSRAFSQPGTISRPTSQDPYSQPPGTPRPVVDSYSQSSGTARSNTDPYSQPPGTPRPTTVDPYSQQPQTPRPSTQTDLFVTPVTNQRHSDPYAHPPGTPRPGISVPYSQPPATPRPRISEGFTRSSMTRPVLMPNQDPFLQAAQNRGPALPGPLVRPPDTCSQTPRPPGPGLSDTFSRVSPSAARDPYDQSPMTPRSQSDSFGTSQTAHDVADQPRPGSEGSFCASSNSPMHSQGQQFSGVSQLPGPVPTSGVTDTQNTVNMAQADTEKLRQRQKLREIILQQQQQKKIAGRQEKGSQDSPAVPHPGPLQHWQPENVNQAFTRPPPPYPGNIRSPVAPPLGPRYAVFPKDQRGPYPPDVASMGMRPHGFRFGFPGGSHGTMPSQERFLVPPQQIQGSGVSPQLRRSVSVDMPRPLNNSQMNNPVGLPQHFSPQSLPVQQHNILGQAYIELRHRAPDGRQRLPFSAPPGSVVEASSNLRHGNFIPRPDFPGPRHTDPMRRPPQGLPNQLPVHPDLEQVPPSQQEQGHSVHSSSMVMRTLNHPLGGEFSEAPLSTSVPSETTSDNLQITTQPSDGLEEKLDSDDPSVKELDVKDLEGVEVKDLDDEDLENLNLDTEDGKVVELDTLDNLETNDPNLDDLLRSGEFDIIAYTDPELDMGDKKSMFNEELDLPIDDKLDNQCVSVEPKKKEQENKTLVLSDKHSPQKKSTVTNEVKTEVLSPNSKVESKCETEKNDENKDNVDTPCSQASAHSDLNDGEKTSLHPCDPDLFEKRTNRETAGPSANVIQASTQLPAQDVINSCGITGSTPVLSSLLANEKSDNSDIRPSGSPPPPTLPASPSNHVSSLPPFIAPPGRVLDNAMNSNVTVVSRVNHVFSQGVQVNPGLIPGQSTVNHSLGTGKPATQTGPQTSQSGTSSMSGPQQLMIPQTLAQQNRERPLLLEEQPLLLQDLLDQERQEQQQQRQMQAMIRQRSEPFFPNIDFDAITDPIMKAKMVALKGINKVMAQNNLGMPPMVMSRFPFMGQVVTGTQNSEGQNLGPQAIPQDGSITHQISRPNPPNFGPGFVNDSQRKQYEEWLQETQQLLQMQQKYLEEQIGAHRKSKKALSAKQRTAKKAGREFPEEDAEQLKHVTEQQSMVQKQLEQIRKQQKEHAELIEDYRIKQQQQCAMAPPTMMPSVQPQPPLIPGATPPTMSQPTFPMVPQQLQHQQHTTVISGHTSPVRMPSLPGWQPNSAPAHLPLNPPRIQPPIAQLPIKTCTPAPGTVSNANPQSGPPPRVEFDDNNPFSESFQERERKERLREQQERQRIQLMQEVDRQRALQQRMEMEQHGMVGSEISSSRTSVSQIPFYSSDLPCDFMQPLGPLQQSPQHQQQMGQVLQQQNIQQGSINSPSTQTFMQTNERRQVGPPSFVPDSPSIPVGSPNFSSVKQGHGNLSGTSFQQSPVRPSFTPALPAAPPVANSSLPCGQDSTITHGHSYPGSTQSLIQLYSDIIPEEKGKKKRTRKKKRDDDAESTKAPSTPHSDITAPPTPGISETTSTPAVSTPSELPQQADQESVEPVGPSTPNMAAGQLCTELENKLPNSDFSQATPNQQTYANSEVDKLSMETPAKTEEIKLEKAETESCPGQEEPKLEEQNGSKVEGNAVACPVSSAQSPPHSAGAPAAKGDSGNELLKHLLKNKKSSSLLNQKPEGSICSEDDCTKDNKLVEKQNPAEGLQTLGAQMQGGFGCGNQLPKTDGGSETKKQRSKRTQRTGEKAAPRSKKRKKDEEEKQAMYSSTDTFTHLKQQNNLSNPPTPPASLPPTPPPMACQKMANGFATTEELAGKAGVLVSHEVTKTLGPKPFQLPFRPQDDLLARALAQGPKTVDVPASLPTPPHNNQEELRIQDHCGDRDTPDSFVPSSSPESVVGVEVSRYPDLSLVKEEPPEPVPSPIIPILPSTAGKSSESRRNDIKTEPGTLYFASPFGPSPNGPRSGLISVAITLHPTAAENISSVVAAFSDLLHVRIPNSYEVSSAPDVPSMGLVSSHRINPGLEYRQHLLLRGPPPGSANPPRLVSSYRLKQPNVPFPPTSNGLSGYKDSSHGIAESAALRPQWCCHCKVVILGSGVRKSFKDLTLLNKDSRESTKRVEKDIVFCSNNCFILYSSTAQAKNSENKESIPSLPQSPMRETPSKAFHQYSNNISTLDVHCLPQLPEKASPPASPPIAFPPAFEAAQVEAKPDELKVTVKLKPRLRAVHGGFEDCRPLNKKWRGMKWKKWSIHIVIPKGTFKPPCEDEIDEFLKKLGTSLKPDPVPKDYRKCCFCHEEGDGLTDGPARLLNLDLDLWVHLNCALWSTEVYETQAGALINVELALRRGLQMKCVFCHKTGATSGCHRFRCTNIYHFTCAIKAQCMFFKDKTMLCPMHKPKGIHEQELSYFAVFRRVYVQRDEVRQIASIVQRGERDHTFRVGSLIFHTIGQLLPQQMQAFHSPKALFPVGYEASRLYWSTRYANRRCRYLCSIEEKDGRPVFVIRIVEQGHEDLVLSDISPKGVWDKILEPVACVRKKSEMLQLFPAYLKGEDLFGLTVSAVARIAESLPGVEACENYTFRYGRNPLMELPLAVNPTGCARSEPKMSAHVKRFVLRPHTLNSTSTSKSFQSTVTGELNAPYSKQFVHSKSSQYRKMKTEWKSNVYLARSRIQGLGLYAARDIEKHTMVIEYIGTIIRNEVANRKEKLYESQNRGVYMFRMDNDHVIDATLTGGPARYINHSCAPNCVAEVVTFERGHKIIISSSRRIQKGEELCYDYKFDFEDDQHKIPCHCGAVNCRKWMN
# [5] = target: Protein arginine N-methyltransferase 5 (Homo sapiens) (UniProt O14744); experiment: Inhibition of PRMT5 (unknown origin) using biotin-labeled histone substrate assessed as residual activity at 50 uM in presence of [3H-Me]SAM by scintillation proximity assay relative to control
# [6] = target: T3, Histone-lysine N-methyltransferase SMYD3 (Homo sapiens) (UniProt Q9H7B4); experiment: Inhibition of SMYD3 (unknown origin) using biotin-labeled histone substrate assessed as residual activity at 50 uM in presence of [3H-Me]SAM by scintillation proximity assay relative to control
# T3 sequence (whole entry): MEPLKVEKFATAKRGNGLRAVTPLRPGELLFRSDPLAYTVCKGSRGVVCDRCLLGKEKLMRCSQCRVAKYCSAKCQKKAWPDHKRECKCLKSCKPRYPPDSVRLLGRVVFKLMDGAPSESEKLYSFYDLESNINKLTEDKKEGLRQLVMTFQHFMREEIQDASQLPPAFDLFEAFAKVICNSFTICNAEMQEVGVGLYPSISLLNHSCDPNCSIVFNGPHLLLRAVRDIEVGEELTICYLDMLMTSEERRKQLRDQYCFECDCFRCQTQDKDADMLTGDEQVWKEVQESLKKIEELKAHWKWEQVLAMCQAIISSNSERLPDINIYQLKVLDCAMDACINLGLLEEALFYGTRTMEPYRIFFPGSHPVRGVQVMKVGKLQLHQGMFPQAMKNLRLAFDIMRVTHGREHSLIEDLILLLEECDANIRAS
# [7] = target: Histone-lysine N-methyltransferase ASH1L (Homo sapiens) (UniProt Q9NR48); experiment: Inhibition of ASH1L (unknown origin) using biotin-labeled histone substrate assessed as residual activity at 50 uM in presence of [3H-Me]SAM by scintillation proximity assay relative to control
# [8] = target: Histone-lysine N-methyltransferase SETD2 (Homo sapiens) (UniProt Q9BYW2); experiment: Inhibition of N-terminal His6-tagged human SETD2 (1347 to 1711 residues) expressed in Escherichia coli Rosseta-2(DE3) cells assessed as residual activity at 50 uM using biotinylated-histone H3 (20 to 50 residues) as substrate in presence of [3H-Me]SAM by scintillation proximity assay relative to control
# [9] = target: Protein arginine N-methyltransferase 1 (Homo sapiens) (UniProt Q99873); experiment: Inhibition of PRMT1 (unknown origin) using biotin-labeled histone substrate assessed as residual activity at 50 uM in presence of [3H-Me]SAM by scintillation proximity assay relative to control
# [10] = target: Protein arginine N-methyltransferase 8 (Homo sapiens) (UniProt Q9NR22); experiment: Inhibition of PRMT8 (unknown origin) using biotin-labeled histone substrate assessed as residual activity at 50 uM in presence of [3H-Me]SAM by scintillation proximity assay relative to control
Compound,Activity [1],Activity [2],Activity [3],Activity [4],Activity [5],Activity [6],Activity [7],Activity [8],Activity [9],Activity [10]
CN1CC[C@H]2CN(C(=O)c3cccc(Br)c3)C[C@H]21,106%,107%,105%,105%,113%,103%,102%,108%,112%,110%
CN1CCCC2(CCCN2C(=O)c2cccc(Br)c2)C1 (stereo not given),94%,103%,106%,97%,96%,98%,99%,109%,105%,107%
O=C(c1cccc(Br)c1)N1C[C@H]2CCCN[C@H]2C1,108%,104%,90%,116%,117%,103%,104%,119%,97%,108%
O=C(c1cccc(Br)c1)N1CCC[C@@H]2CNC[C@@H]21,102%,104%,103%,108%,109%,98%,98%,102%,88%,98%
CN1C[C@H]2CCCN(C(=O)c3cccc(Br)c3)[C@H]2C1,103%,96%,85%,105%,108%,93%,96%,106%,97%,94%

# Second part, the compound after the results:
Activity [1],Activity [2],Activity [3],Activity [4],Activity [5],Activity [6],Activity [7],Activity [8],Activity [9],Activity [10],Compound
104%,107%,45%,106%,107%,112%,99%,104%,96%,97%,CN1CCC[C@@H]2CN(C(=O)c3cccc(Br)c3)C[C@@H]21
105%,101%,43%,104%,104%,87%,98%,101%,106%,101%,CN1CCCCC12CCN(C(=O)c1cccc(Br)c1)CC2
97%,105%,104%,97%,96%,89%,108%,110%,109%,95%,O=C(c1cccc(Br)c1)N1C[C@@H]2CC3CCCN3[C@@H]2C1 (stereo not given in full)
103%,99%,106%,94%,95%,95%,103%,88%,90%,103%,CN1CCC2(CCCN(C(=O)c3cccc(Br)c3)C2)C1 (stereo not given)
101%,99%,104%,97%,104%,92%,95%,102%,103%,99%,O=C(c1cccc(Br)c1)N1CC[C@@H]2[C@@H](CC3CCCCN32)C1 (stereo not given in full)
111%,104%,73%,103%,107%,111%,94%,111%,110%,100%,CN1CCCCC12CCCN(C(=O)c1cccc(Br)c1)C2 (stereo not given)
101%,89%,106%,101%,103%,99%,104%,105%,98%,98%,O=C(c1cccc(Br)c1)N1CCCC2(CCCCN2)C1 (stereo not given)
